Assay results taken from patent US20250302775A1, “METHODS FOR THE TREATMENT OF DEPRESSION” (Autobahn Therapeutics, Inc., priority 2022, published 2025).

Tests used:
[1] = brain and plasma concentration in rat cuprizone model after 21 days repeat administration; format: in vivo; conditions: 21 days repeat administration 30 or 100 μg/kg, 4 hours post-final dose
Procedure: In vivo brain exposure of active compound compared to prodrug was assessed via tissue distribution (TD) assay in mouse and rat cuprizone model, measured as brain exposure ratio of brain to plasma following thyromimetic treatment. […] Table 3 also depicts brain-to-plasma AUC ratio.

[2] = tissue distribution (TD) assay in mouse, brain and plasma; format: in vivo, male C57BL/6 mouse

- brain exposure compared to prodrug LL-341070 [1]: enhanced brain exposure
- AUC ([2]; male, C57BL/6, mouse, plasma, po, 100 ug/kg): 35.8 ng·h/mL
- Brain AUC ([2]; single PO 100 μg/kg, male C57BL/6 mouse, AUC 0-24 hr): 73.9 ng·h/mL
Structure (SMILES): CC(C)c1c(O)ccc(Cc2c(Cl)cc(OCC(=O)O)cc2Cl)c1F [LL-341070A]
